Source: patent EP0806963B1, “CARCINOMA TREATMENT” (THE UNIVERSITY OF BIRMINGHAM, priority 1994, dated 1996)

How the values were obtained:
[1] = test system: ovarian carcinoma cell line A2780; experiment: MTT colorimetric cell growth assay (Mossman), A2780; assay type: cell-based, human; settings: 48 hour MTT assay
Text: (§1) A human ovarian carcinoma cell line A2780 and its cis-platin-resistant derivative 2780CP ( see Masuda et al., Cancer Res., 50, 1863-1866, 1990), an EJ bladder carcinoma cell line (Accession No.85061108, European Collection of Animal Cell Cultures, Porton Down, UK ) and Rat-1 fibroblasts (Lania et al., Virology, 101, 217-232, 1980) were continuously maintained in RPMI 1640 medium (GIBCOBRL, Life technologies Ltd, Paisley, Scotland) supplemented with 10% FCS (foetal calf serum - ICN Flow, Thane, Oxfordshire, England), 2mM glutamine, and the antibiotics, penicillin (1000 U/ml) and streptomycin (1mg/ml) (Sigma Co. Ltd, Poole, Dorset, England) at 37°C in a 5% CO2 atmosphere.
(§2) Inhibition of cell proliferation was evaluated using the colorimetric assay of Mossman (see Mossman, J. Immunol. Meths., 65, 55-63, 1983). […] Various concentrations of G28.5 mAb were then added and their effect on cell growth was evaluated after an appropriate period of time (48, 72 or 96 hrs) by the addition of 20 µl of 5 mg/ml MTT (3-([…])-2,5-diphenyl tetrazolium bromide) obtained from Sigma, in PBS. The cells were further incubated for 5 hrs at 37°C, formazan crystals thus formed were dissolved in DMSO and the optical density (O.D.) was recorded at 550nm on a Becton Dickinson Multiscan. […] After 48 hours, cell growth was assessed using the MTT assay as described above. […]

[2] = test system: Rat-1/CD40 CI.8 cell line; experiment: MTT colorimetric cell growth assay (Mossman), CD40-transfected Rat-1 fibroblasts; assay type: cell-based
Text: as §1, with “atmosphere. […]” for “atmosphere.”
as §2

## N.N.[Cl][Pt][Cl] [cis-platin]
[1]; 5 µM cis-platin alone
  cell killing effect: 46%
[1]; 5 µM cis-platin with 10 µg/ml G28.5 mAb
  cell killing effect: 61%
[2]; cis-platin with 1 µg/ml G28.5 mAb, spread +/- 0.3
  IC50: 4.2 µM
[2]; cis-platin without G28.5 mAb, spread +/- 0.9
  IC50: 6 µM
